Measurements reported in US6916905B2, “Dmt-Tic di-and tri-peptidic derivatives and related compositions and methods of use” (The United States of America as represented by the …, priority 2000, dated 2005).
Entries after “also recorded” stand apart in the source; their conditions may differ. Where two headings read alike, the source gives them in different places. Non-standard residues stand in square brackets, D forms with d. Residues, ends and D or L forms follow the SMILES beside them. *: point of attachment. Dmt = Cc1cc(O)cc(C)c1C[C@H](N)C(=O)O; Tic = O=C(O)[C@@H]1Cc2ccccc2CN1; NHtBu = CC(C)(C)N*

Key:
[1] = target: μ receptors (Cavia porcellus, UniProt P97266); assay: Guinea pig ileum (GPI) functional bioassay (Example 48); conditions: for GPI Ke: μ antagonism
Procedure: (§1) The functional bioactivity of the present inventive compounds was assessed using standard functional bioassays of δ and μ activity in MVD and GPI (Salvadori et al. (1995), supra; and Salvadori et al., J. Med. Chem. 36: 3748-3756 (1993)). […] Dose-response curves were obtained (Salvadori et al. (1995), supra) for both tissues. […] Data were derived from at least four independent tissue samples and dose-response curves from which the pA2 values were determined (Salvadori et al. (1997), supra) according to Arunlakshana and Schild (Br. J. Pharmacol. 14: 48-58 (1959)).

[2] = target: hMDR-1 (Homo sapiens, UniProt P08183); assay: Calcein AM assay for Pgp in hMDR-1 transfected G-185 fibroblasts (Example 49); conditions: for inhibition of hMDR-1 (Pgp), in words: calcein fluorescence; for order of inhibition of hMDR-1: rank within amide series
Procedure: Stably transfected G-185 fibroblasts containing hMDR-1 and NIH 3T3 cell lines were grown to confluent monolayers in DMEM containing 4.5 g glucose/1, 10% fetal calf serum, L-glutamine, penicillin (50 units/ml), streptomycin (50 μg/ml) and 1 mM sodium pyruvate in 5% CO2 at 37° C. G-185 cells were maintained in […] colchicine.
The assay for Pgp is based on the diffusion of non-fluorescent calcein AM across the cell membrane. Calcein AM is then hydrolyzed and accumulates as the fluorescent calcein. In transfected cells expressing excess hMDR-1, Pgp extrudes calcein AM from the cell before hydrolysis occurs; inhibition of hMDR-1 results in the accumulation of intracellular calcein. Transfected G-185 cells and the NIH 3T3 cells were analyzed in triplicate using seven graded dosages of verapamil or the opioid peptides in 96-well plates. Cells (2.5×10^6/well) were incubated in 100 μl culture medium for 15 min at 37° C. and 50 μl of 1 μM calcein AM in PBS, plus 50 μl of verapamil or one of the present inventive compounds in PBS, or 100 μl of PBS alone (control) were added. Cells were mixed and incubated for 15 min at 37° C., then centrifuged for 5 min at 2,000×g, and then washed three times in 200 μl PBS. Cell pellets were resuspended in 200 μl PBS and transferred to white Microfluor Plates (Nunc, Copenhagen, Denmark) in order to measure calcein-specific fluorescence (494 nm absorption; 517 nm emission). Internal controls were carried out with each experiment using verapamil and PBS in order to compare the consistency between cell preparations. Means±SE (error bars) were determined and plotted using Prism™ (GraphPad, San Diego, Calif.).

[3] = target: T1, δ receptors (Mus musculus, UniProt P32300)
Procedure: as §1

[4] = target: T2, μ-opioid receptors (Rattus norvegicus, UniProt P33535); assay: Rat brain synaptosome (P2) binding, [3H]DAGO (Example 47)
T2 construct: assayed with a rat brain synaptosomal preparation (P2); from tissue; host or cells: rat brain P2 synaptosomes

[5] = target: T3, δ-opioid receptors (Rattus norvegicus, UniProt P33533); assay: Rat brain synaptosome (P2) binding, agonist [3H]DPDPE (Example 47); conditions: for δ/μ selectivity, in words: from Table II binding; for Agonist K1μ/Kiδ: selectivity, Kiδ from agonist radioligand [3H]DPDPE
T3 construct: assayed with a rat brain synaptosomal preparation (P2); from tissue; host or cells: rat brain P2 synaptosomes
Procedure: (§3) Briefly, the agonists [^3H]DPDPE (30-60 Ci/mmol, NEN-DuPont) and [^3H]DAGO (30-60 Ci/mmol, Amersham) were used to label δ and μ sites, respectively, under saturation binding conditions (2 hrs at 22° C.). Excess unlabeled peptide (2 μM) established non-specific binding levels and the labeled membranes were rapidly filtered on Whatman GF/C glass fibre filters, thoroughly washed, dried and measured for radioactivity using CytoScint (ICN, Irvine, Calif.). […] The affinity constants (Ki) were calculated according to Cheng and Prusoff (Biochem. Pharmacol. 22: 3099-3108 (1973)).

[6] = target: T3, δ-opioid receptors; assay: Rat brain synaptosome (P2) binding, δ antagonist [3H]N,N(CH3)2-Dmt-Tic-OH (Example 47); conditions: for Antagonist K1μ/Kiδ: selectivity, Kiδ from antagonist radioligand [3H]N,N(CH3)2-Dmt-Tic-OH
Procedure: as §3

[7] = target: T4, δ receptors (Rattus norvegicus, UniProt P33533); assay: Radio-receptor competition assay, rat brain synaptosomes, [3H]DPDPE (Example 74); format: binding; conditions: for μ/δ: selectivity Kiμ/Kiδ
T4 construct: assayed with a rat brain synaptosomal preparation (P2); from tissue; host or cells: rat brain P2 synaptosomes
Procedure: (§2) After 120 min incubation at room temperature (23-24° C.), the samples were rapidly filtered through Whatman GF/C glass fiber filers and washed three times with 2 ml ice-cold 0.05 M Tris, pH 7.4-7.5, containing 0.1% BSA. Presoaking filters in 0.1% polyethylenimine is only required in assays with peptides carrying an overall positive charge, such as dynorphin or nociceptin (Guerrini et al., J. Med. Chem., 40: 1789-1793 (1997)). Non-specific binding was determined using 2 μM unlabeled DPDPE or DAGO for δ or μ assays, respectively. The Ki data, determined according to Cheng and Prusoff (Cheng et al., Biochem. Pharmacol., 22: 3099-3108 (1973)), represent the means±SE from 3 or more independent assays using at least 3 different synaptosome preparations and testing the analogues with 5-8 graded dosages over 2-3 orders of magnitude in concentration.

[8] = target: T5, μ receptors (Rattus norvegicus, UniProt P33535); assay: Radio-receptor competition assay, rat brain synaptosomes, [3H]DAGO (Example 74); format: binding; conditions: rat brain P2 synaptosomes, [3H]DAGO; read-out: Receptor affinity (nM) Kiμ
T5 construct: assayed with a rat brain synaptosomal preparation (P2); from tissue; host or cells: rat brain P2 synaptosomes
Procedure: as §2

[9] = target: T1, δ receptors; assay: MVD functional pharmacological bioassay (Example 75); parameters: A single MVD was suspended in 4 ml modified Kreb's solution; from tissue; host or cells: mouse vas deferens
[10] = MVD Ke(nM), δ antagonism, Ke = antilog of pA2
[11] = rat brain synaptosomes (P2), mean ± SEM, n in parentheses, read-out: Kiμ (nM) [^3H]DAGO
[12] = rat brain synaptosomes (P2), mean ± SEM, n in parentheses, read-out: Kiδ(nM) [^3H]DPDPE
[13] = rat brain synaptosomes (P2), δ antagonist radioligand, mean ± SEM, n in parentheses, read-out: Kiδ(nM) [^3H]N,N(CH3)2-Dmt-Tic-OH
[14] = MVD pA2 (range), δ antagonism against deltorphin C, mean (range)
[15] = δ antagonism, Ke = antilog of pA2

T4 sequence (P33533 whole entry): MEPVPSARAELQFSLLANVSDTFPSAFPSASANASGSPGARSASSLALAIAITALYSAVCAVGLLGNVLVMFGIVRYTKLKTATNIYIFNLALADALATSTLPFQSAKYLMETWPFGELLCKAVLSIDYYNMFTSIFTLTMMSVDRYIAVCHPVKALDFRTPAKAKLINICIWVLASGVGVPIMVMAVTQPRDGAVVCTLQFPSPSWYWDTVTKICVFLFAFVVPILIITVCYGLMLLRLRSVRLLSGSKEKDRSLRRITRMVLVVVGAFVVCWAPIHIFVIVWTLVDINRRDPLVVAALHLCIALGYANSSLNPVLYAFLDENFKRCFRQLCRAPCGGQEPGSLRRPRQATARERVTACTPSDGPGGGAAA
T3 sequence (P33533 whole entry): as above
T1 sequence (P32300 whole entry): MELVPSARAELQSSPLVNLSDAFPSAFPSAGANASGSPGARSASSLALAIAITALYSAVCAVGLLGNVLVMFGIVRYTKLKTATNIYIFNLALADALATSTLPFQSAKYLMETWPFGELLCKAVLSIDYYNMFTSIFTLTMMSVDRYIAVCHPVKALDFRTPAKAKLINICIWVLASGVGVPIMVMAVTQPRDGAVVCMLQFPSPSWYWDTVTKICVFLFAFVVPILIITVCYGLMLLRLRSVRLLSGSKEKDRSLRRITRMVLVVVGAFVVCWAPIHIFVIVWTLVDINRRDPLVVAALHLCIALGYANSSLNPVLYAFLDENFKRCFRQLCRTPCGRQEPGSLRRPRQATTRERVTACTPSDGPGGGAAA
μ receptors (Cavia porcellus, UniProt P97266), sequence (P97266 whole entry, looked up): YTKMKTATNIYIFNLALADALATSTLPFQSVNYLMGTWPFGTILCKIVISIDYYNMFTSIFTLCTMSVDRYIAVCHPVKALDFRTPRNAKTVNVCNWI
hMDR-1, sequence (P08183 whole entry): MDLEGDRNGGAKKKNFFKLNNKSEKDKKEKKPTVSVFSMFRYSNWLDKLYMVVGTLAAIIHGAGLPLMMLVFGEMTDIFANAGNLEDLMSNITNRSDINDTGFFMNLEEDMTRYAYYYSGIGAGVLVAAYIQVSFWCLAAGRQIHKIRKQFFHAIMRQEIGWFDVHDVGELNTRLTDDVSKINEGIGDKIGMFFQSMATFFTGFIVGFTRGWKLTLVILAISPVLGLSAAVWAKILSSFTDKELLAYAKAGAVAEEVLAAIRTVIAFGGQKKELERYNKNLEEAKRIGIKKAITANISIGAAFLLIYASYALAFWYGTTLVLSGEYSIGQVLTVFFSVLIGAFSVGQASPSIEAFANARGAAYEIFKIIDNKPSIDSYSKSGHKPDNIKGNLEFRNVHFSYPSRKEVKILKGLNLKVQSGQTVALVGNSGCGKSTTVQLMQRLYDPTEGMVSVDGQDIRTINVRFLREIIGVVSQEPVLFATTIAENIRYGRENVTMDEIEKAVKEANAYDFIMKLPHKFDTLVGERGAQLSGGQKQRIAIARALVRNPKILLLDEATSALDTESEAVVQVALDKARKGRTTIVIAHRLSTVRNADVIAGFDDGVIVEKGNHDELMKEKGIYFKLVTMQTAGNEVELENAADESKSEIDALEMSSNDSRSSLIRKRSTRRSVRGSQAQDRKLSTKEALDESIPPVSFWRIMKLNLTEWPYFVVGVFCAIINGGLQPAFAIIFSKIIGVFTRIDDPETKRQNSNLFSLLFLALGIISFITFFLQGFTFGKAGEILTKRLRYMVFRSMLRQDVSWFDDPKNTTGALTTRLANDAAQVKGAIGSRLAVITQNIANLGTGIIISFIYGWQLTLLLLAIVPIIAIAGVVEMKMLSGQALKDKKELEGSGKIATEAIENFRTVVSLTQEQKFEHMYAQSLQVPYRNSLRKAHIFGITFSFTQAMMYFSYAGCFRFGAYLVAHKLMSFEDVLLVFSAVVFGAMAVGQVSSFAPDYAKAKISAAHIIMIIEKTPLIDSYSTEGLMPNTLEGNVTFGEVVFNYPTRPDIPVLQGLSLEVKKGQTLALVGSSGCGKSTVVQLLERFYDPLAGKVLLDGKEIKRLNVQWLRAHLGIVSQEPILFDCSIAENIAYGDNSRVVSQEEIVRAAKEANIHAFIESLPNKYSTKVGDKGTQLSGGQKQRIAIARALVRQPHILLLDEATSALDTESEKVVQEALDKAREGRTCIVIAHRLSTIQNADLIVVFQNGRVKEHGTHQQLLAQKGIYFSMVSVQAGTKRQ
T2 sequence (P33535 whole entry): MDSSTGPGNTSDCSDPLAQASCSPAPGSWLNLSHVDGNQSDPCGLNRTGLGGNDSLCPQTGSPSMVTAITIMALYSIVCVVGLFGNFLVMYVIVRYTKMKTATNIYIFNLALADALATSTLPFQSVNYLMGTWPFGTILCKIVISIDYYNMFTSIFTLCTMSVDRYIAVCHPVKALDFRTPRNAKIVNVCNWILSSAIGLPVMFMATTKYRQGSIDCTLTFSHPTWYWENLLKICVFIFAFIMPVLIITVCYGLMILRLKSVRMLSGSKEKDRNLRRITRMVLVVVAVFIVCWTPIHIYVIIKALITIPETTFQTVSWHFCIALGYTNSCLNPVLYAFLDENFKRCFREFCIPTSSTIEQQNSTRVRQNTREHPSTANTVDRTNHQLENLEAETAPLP
T5 sequence (P33535 whole entry): as above

Compound | EC50 [1] | inhibition of hMDR-1 (Pgp), in words [2] | bioactivity on MVD (δ), in words [3] | Ki [4, 11] | Agonist K1μ/Kiδ [5] | order of inhibition of hMDR-1 [2] | Antagonist K1μ/Kiδ [6] | Kb [3, 14] | MVD Ke [3, 15] | also measured
CNC(=O)[C@@H]1Cc2ccccc2CN1C(=O)[C@@H](N)Cc1c(C)cc(O)cc1C [Compound 7, H-Dmt-Tic-NHMe] (H-[Dmt]-[Tic]-NHMe) | > 10000 nM | inactive | extraordinarily weak δ agonism | 85.5 ± 7.7 nM | – | – | – | – | – | Kb [1]: 1150 nM; bioactivity on GPI (μ), in words [1]: low μ antagonism; GPI Ke [1]: 1.15 µM; EC50 [3]: 21200 nM; Kb [3, 10]: > 10000 nM; MVD pA2 (range) ([3]; δ antagonism against deltorphin C, mean (range)): —^d
Cc1cc(O)cc(C)c1C[C@H](N)C(=O)N1Cc2ccccc2C[C@H]1C(=O)NC12CC3CC(CC(C3)C1)C2 [Compound 11, H-Dmt-Tic-NH-1-adamantane] | 36 nM | – | – | – | 3 | (compound 11)>H-Dmt-Tic-Ala-NH-1-adamantane (compound 21) | 0.8 | – | – | Ki [5]: 0.26 ± 0.05 nM; δ/μ selectivity, in words [5]: weakly μ selective; bioactivity on GPI (μ), in words [1]: moderate μ agonism; Ki [6]: 1.01 ± 0.26 nM; EC50 [3]: 870 nM; Kb [3, 10]: > 10000 nM; Ki [4]: 0.76 ± 0.05 nM
Cc1cc(O)cc(C)c1C[C@H](N)C(=O)N1Cc2ccccc2C[C@H]1C(=O)N[C@@H](C)C(=O)NC(C)(C)C [Compound 20, H-Dmt-Tic-Ala-NH-tBu] (H-[Dmt]-[Tic]-Ala-NHtBu; N-terminus and C-terminus assumed) | > 10000 nM | – | highest δ-antagonist functional bioactivities | 4.03 ± 0.21 nM | 61 | (compound 20)>H-Dmt-Tic-NH-tBu (compound 9) | 48 | 0.692 nM | 0.69 nM | Ki [5, 12]: 0.066 ± 0.01 nM; Kb [1]: 174 nM; GPI Ke [1]: 0.17 µM; Ki [6, 13]: 0.08 ± 0.02 nM
Cc1cc(O)cc(C)c1C[C@H](N)C(=O)N1Cc2ccccc2C[C@H]1CO [H-Dmt-Tic-ol, reference compound] | – | – | – | – | – | – | – | – | – | μ/δ [7]: 344; Ki [8]: 151 nM
Cc1cc(O)cc(C)c1C[C@H](N)C(=O)N1Cc2ccccc2C[C@H]1C(=O)NCc1nc2ccccc2[nH]1 [Compound 24, H-Dmt-Tic-NH—CH2-Bid] | – | – | – | – | – | – | – | – | – | δ activity on MVD, in words [9]: potent δ-agonist activity; MVD, antagonist activity (pA2) N,N(CH3)2-Dmt-Tic-OH ([9]; pA2 of N,N(CH3)2-Dmt-Tic-OH against the listed δ agonist): 9.70; MVD, antagonist activity (pA2) naloxone ([9]; pA2 of naloxone against the listed δ agonist): 7.45; Functional Bioactivity MVD (pEC50) ([9]; δ agonism): 9.90
Cc1cc(O)cc(C)c1C[C@@H]1NC(=O)[C@@H]2Cc3ccccc3CN2C1=O [cyclo (DMT-Tic), reference compound] | – | moderately effective inhibitor | – | – | 635 ± 69 (3-5) | – | no activity | – | – | Ki [5]: 9.58 ± 1.98 nM; Kiμ (nM) [^3H]DAGO ([4]; rat brain synaptosomes (P2), mean ± SEM, n in parentheses): no activity
C[C@@H](NC(=O)[C@@H](N)Cc1ccc(O)cc1)C(=O)NCC(=O)N(C)[C@@H](Cc1ccccc1)C(=O)NCCO [DAGO, H-Tyr-D-Ala-Gly-N-MePhe-Gly-ol] | – | inactive; also recorded: lack of inhibition | – | – | – | – | – | – | – | –
Cc1cc(O)cc(C)c1C[C@@H](C(=O)N1Cc2ccccc2C[C@H]1C(=O)NC12CC3CC(CC(C3)C1)C2)N(C)C [Compound 15, N,N(Me)2-Dmt-Tic-NH-1-adamantane] | 16 nM | – | – | – | 7 | (compound 15)=H-Dmt-Tic-NH-1-adamantane (compound 11) | 9 | 0.871 nM | 0.87 nM | Ki [5]: 0.16 ± 0.17 nM; δ/μ selectivity, in words [5]: essentially nonselective; bioactivity on GPI (μ), in words [1]: clearly displayed μ agonism; Ki [6]: 0.12 ± 0.02 nM; Ki [4]: 1.12 ± 0.1 nM; rise in μ affinity relative to N,N(Me)2-Dmt-Tic-OH [4]: ~2,200 fold
Cc1cc(O)cc(C)c1C[C@@H](C(=O)N1Cc2ccccc2C[C@H]1C(=O)NC(C)(C)C)N(C)C [Compound 14, N,N(Me)2-Dmt-Tic-NH-tBu] | > 10000 nM | – | modest δ antagonism | 226 ± 21 nM | – | (compound 14)>H-Dmt-Tic-Ala-NH-tBu (compound 20) | – | 14.1 nM | 14.1 nM | Kb [1]: 300 nM; bioactivity on GPI (μ), in words [1]: weak μ antagonism
Cc1cc(O)cc(C)c1C[C@@H](C(=O)N1Cc2ccccc2C[C@H]1C(=O)O)N1CCCCC1 [Compound 3, [des-NH2-α-piperidine-1-yl]-Dmt-Tic-OH] | > 10000 nM | inactive | detrimental for all bioactivity measurements on MVD | 2040 ± 264 nM | 1728 | – | 2755 | 49 nM | 49 nM | Ki [5, 12]: 1.18 ± 0.1 nM; Ki [6, 13]: 0.74 ± 0.3 nM
C[C@@H](NC(=O)[C@@H](N)Cc1ccc(O)cc1)C(=O)N[C@@H](Cc1ccccc1)C(=O)NCC(=O)N[C@@H](Cc1ccc(O)cc1)C(=O)N1CCC[C@H]1C(=O)N[C@@H](CO)C(N)=O [Dermorphin, H-Tyr-D-Ala-Phe-Gly-Tyr-Pro-Ser-NH2] | – | lack of inhibition | – | – | – | – | – | – | – | IC50 [1]: 1.82 nM; inhibition of hMDR-1 (Pgp), in words ([2]; listed as DER): inactive
Cc1cc(O)cc(C)c1C[C@H](N)C(=O)N1Cc2ccccc2C[C@H]1C(=O)NCC(=O)NCc1nc2ccccc2[nH]1 [Compound 26, H-Dmt-Tic-Gly-NH—CH2-Bid] | – | – | – | – | – | – | – | – | – | δ activity on MVD, in words [9]: potent δ antagonist activity; δ/μ selectivity, in words ([7]; from Table IV binding): essentially non-selective; μ/δ [7]: 353
Oc1ccc2c3c1O[C@H]1c4[nH]c5ccccc5c4C[C@@]4(O)[C@@H](C2)N(CC2CC2)CC[C@]314 [naltrindole] | – | inhibition that dissipated at high concentrations | – | – | – | – | – | – | – | –
Cc1cc(O)cc(C)c1C[C@H](N)C(=O)N1Cc2ccccc2C[C@H]1C(=O)N[C@@H](C)C(=O)NC12CC3CC(CC(C3)C1)C2 [Compound 21, H-Dmt-Tic-Ala-NH-1-adamantane] | 1000 nM | – | highest δ-antagonist functional bioactivities | – | – | (compound 21)>>N,N(Me)2-Dmt-Tic-OH (inactive) | – | 0.513 nM | 0.51 nM | Ki [4]: 2.52 ± 0.56 nM
Cc1cc(O)cc(C)c1C[C@H](N)C(=O)N1Cc2ccccc2C[C@H]1C(=O)NC(C)(C)C [Compound 9, H-Dmt-Tic-NH-tBu] (H-[Dmt]-[Tic]-NHtBu) | 1040 nM | – | highest δ-antagonist functional bioactivities | 5.96 ± 0.82 nM | 14 | (compound 9)>>H-Dmt-Tic-NHMe (compound 7) (inactive) | 6 | 5.75 nM | – | δ/μ selectivity, in words [5]: essentially nonselective; Ki [5, 12]: 0.43 ± 0.07 nM; Ki [6, 13]: 0.93 ± 0.15 nM; Kb [3, 10]: 1.74 nM
